Several values for one entry are separate records, joined by “and”; a condition that tells them apart may be missing. Equal entries are not always repeated.
Legend:
Type in all cases: in vivo
Cockroaches = experiment: Cockroach toxicity by forced exposure on treated filter paper; details: forced exposure 24 hours
Description: Additionally, toxicity was determined by forced exposure testing under the following protocol. Filter paper circles were treated with test compound. Cockroaches were released onto the treated circles and covered with inverted plastic cylinders placed over the paper discs. The cockroaches were left on the substrates for 24 hours and checked for mortality.

[1] = tested on: brown marmorated stink bugs (BMSB); experiment: Brown marmorated stink bug repellency, treated vs. untreated filter paper arena
Description: The two semi-circle filter papers were aligned together to completely cover the bottom of the test arena. Control arenas were also set up in a similar fashion except both were treated with acetone. Five replicates of 5 BMSB were then introduced into both the treated and control arenas. By releasing them in the center of the arena, the BMSB were presented with a choice of treated vs. untreated substrate (or untreated vs. untreated in the control arenas). The repellency of the BMSB was recorded at 24 hours post-treatment.

stable flies = experiment: Human forearm test against stable flies, time to first confirmed bite; details: average of two trials, maximum 8 hours
Description: Two insect repellents per day were tested by applying one on each arm of a human subject and inserting the arms into a cage containing 50 stable flies. The exposure period was five minutes at every 30 minute interval until the first time a confirmed bite was […] The stable flies were reared at ambient temperature, relative humidity and photoperiod. Groups of 50 flies were aspirated from the cage and released into 16 oz. cups with screened lids, which were used to release flies into the two test cages. […] Adjacent areas above and below the treated area were protected with elastic bandages held in place with Elastikon® surgical tape.
The application rate was between 0.65 ml and 1 ml/250 cm^2 for all repellents. The actual amount of repellent used was based upon the amount that provides thorough coverage of the 250 cm^2 treatment area. A repellent was applied using either a micropipette or a syringe minus the needle. The repellents were then evenly spread on the treatment area with a gloved finger. Each test subject's forearms were allowed to air dry for approximately 30 minutes prior to the first exposure. The study coordinator or technician assisted the test subjects in inserting their arms into the test cages, taking care not to rub them on the cloth sleeve. Both treated arms were inserted into a cage; there were two subjects (4 arms) per cage. The test subjects exposed their treated forearms to the flies in the test cages for 5 minutes. The subjects then removed their arms from the cages with assistance from the study coordinator or a technician. Exposures of each arm were repeated every 30 minutes until the repellent on that arm was determined to be no longer effective (‘breakdown’) or until 8 hours have elapsed, whichever occurs first.
Breakdown occurs when the first confirmed bite is noted. A confirmed bite occurs when a bite is followed by a second bite in the same exposure period or in the next succeeding exposure period. The second bite becomes the confirming bite and the breakdown time is taken as the time of the first bite. When a confirmed bite occurs, testing is discontinued on that arm. Results in Table 3 below are the average of two trials on two different test subjects. Compounds were diluted in isopropyl alcohol.

[2] = tested on: Brown Dog Ticks, Rhipicephalus sanguineus; experiment: Brown Dog tick repellency on vertical filter paper strips; details: 7.5% in isopropyl alcohol
Description: Control against Brown Dog ticks was determined in the following protocol. Strips of filter paper, 1″ by 3″, were placed on a sheet of aluminum foil treated with 1 ml each of the test samples and allowed to dry. The end of each treated strip was stapled to an untreated filter paper strip of the same dimensions. The stapled strips were suspended in a vertical position above a tray, with the treated half attached to a horizontal glass rod by a metal clip. The untreated half was lowered when the strip is vertically positioned. Brown Dog Ticks, Rhipicephalus sanguineus, mixed sexes, were purchased from a supplier. Five replicates of five ticks for each treatment regimen plus five additional replicates for the control were employed. Ticks shipped to the test site were given at least one day to acclimate to “shipping stress” before they are used for testing. Those tick specimens which appeared sluggish or moribund were not used. Suitable ticks were removed from their containers and allowed to quest on the free end of the test strip. Once present on the strip they were watched as they crawled up the strip until they contacted the treated paper. If the tick, once in contact with the treated zone, either turned around, stopped without proceeding further, or dropped off, the tick is classified as repelled. If it continued to crawl onto the treated strip, even after it stopped briefly, that tick was classified as not repelled. A maximum observation time of 1 minute per replicate was allowed for ticks to respond after reaching the treated area, but during the test, if more time was needed, the maximum observation time may have been adjusted at the discretion of the study coordinator. At the end of the observation time, the number of ticks repelled was recorded. Tick behavior was recorded when applicable, such as whether increased number of affected or repelled ticks occurred in successive replicates over time. After the completion of each treatment parameter, the testing chamber was ventilated for five minutes by turning on the exhaust fan and opening the door leading into the chamber. Ticks were used only once. Average number of ticks displaying each behavior category were calculated and compared to the control replicates.

Black Widow spiders = experiment: Black Widow spider choice test in half-treated tube shelters; details: 5% in isopropanol; location after 24 hours
Description: Control against Black Widow spiders was determined using the following protocol. One test container containing two card stock tube shelters, one half treated with a test sample and the other half treated with isopropanol was prepared. A spider was introduced in the center of the tube. The spider was then given a choice to move to one end of the shelters. The following day, its location is recorded and compared to the results from a shelter containing untreated half-shelters.
On the day of the test one of the two shelters was sprayed with the test sample solution using a 2 oz pump spray bottle. Only the surfaces that the spider will most likely contact were treated. Therefore, only the inside of one of the shelter tubes, including the end disc (spiders will not be able to access the outside part of the shelter) were sprayed. The total amount of product was weighed and recorded. The treated surface was allowed to dry for a minimum of ½ hour, or until solvent could not be detected by smell. At this time the shelter tubes were assembled.
Card stock paper tube shelters were constructed from 2 half-letter sized sheets (5½″×8½″) of paper, rolled and taped together to form a short tube. One end of each was covered with a circle of card stock paper, while the other end was later taped to the open end of the other half sheet, forming one long tube. […] The solvent-treated half was labeled with a “C” on the inner and outer walls with a pencil or a pen with solvent resistant ink. Prior to forming the final tube shelter, a semi-circular hole was cut into one of the margins of each sheet such that, once the two tubes are taped together, the holes correspond to the top and at the junction of the tubes for introduction of the spiders.
Twenty-five arenas were prepared in this manner for each test sample. There were five replicates of five spiders. Twenty-five additional control arenas were also prepared. They were prepared the same way, except that areas to be sprayed were sprayed with isopropanol only.
Replicates of five spiders were selected for each test formulation and for the control. The specimens were visually examined for overall physical condition. […] The spiders were transferred directly into the holding vials using flexible forceps or with a little coaxing with an artist brush. Because of their cannibalistic tendencies, each vial contained only one spider. There they were held until the time for testing.
At the test start the spiders were placed directly in the middle, through the opening at the top of the shelter tube, and the opening covered, with only one spider per arena. […] They were left alone for 24 hours, after which time their location within the arena was recorded. Spiders present inside the shelter treated with the test repellent were considered tolerant.

house flies = experiment: House fly repellency on treated filter paper food trays in cages; details: over 6 hours
Description: The bottom of each cage was lined with brown craft paper and divided into 4 equal quadrants. Each quadrant housed a makeshift filter paper food tray. Two of the four filter papers were treated with repellent and two treated with isopropanol. Control cages contained filter papers that were treated with 4 filter papers of isopropanol only. The number of flies resting on filter paper per quadrant was recorded every 30 minutes for a total of 6 hours. Cages were rotated to eliminate positional bias. […] Each of the test samples were diluted in isopropyl alcohol.

German cockroaches = experiment: German cockroach repellency, choice of food stations in arena; details: 50% in acetone; at 4 hours
Description: The efficacy of compounds of this invention to control or repel German cockroaches was illustrated using the following protocol. One food pellet each was placed on a paper square (station) treated with one of the repellent materials. Materials were diluted to 50% in acetone and a straight acetone station was also used. Both stations were placed on the same side of the arena. Cockroaches were starved for 2 days and then released into the arena. They were given a choice to feed on either food pellet. A control arena with an acetone treated station and an untreated station was also used. The distribution of cockroaches within the arena was recorded at 30 minute intervals over 4 hours. Repellency at 4 hours was calculated by the number of cockroaches on the untreated station vs. the total number of cockroaches on the stations.

Brown Dog Ticks = experiment: Second repellent assay against Brown Dog Ticks; details: 15% in isopropyl alcohol
Description: Also, a second repellent assay was used to evaluate six test samples against Brown Dog Ticks. Five replicates of five ticks were given the opportunity to quest onto a vertical strip of untreated filter paper and then allowed to move upward toward a second vertical strip of filter paper treated with one of the six candidate repellents or DEET®. In the control situation, the second strip was treated with isopropanol. They were then observed for directional or behavioral changes caused in response to contact with the repellent. Ticks were recorded as either repelled or not repelled. Compounds were diluted in isopropyl alcohol. The percentages of ticks repelled are shown below in Table 6.

[3] = 30% in isopropyl alcohol on forearm

Row | Structure (SMILES) | % Repellency at 24 hours ([1]; 2.5% in isopropyl alcohol) | 100% bite protection for (stable flies; [3]) | Overall % Repellency (house flies; 7.5% in isopropyl alcohol) | % Repellency 4 hr (German cockroaches) | other results
1 | CCCCCCCC1CC(=O)C=C(C)C1 (stereo not shown) [3-Methyl-5-heptyl-2-cyclohexenone, 3-methyl-5-heptyl-2-cyclohexenone] |  |  |  |  | Mortality @ 24 hours (Cockroaches; 2.5% in acetone): 10%
2 | CCCCCC1CC(=O)C=C(C)C1 (stereo not shown) [3-Methyl-5-pentyl-2-cyclohexenone, 3-methyl-5-pentyl-2-cyclohexenone] |  |  |  |  | Mortality @ 24 hours (Cockroaches; 2.5% in acetone): 96%
3 | CC1CCC(C(C)(C)O)C(O)C1 (stereo not shown) [PMD, p-Menthane-3,8-diol, reference compound] | 80% | 6.5 h |  |  | 100% bite protection for (stable flies; 15% in isopropyl alcohol on forearm): 4.25 h
4 | CCCCCC1C(=O)CCC1CC(=O)OCCC (stereo not shown) [Propyl dihydrojasmonate, propyl dihydrojasmonate] | 80% | 4 h | 23% | 87.5% | Mean % repelled [2]: 96%; % Repellency (Black Widow spiders): 62.5%; % Repellency at 24 hours ([1]; 5% in isopropyl alcohol): 100%; Overall % Repellency (house flies; 5% in isopropyl alcohol): 52%; Mean % repelled (Brown Dog Ticks): 100%
5 | CCCCCCCCCCCCCC1CCC(=O)O1 (stereo not shown) [gamma-Heptadecalactone] |  |  | 39% | 100% | Mortality @ 24 hours (Cockroaches; neat): 22%
6 | CCCCCCCCCC1(C)CCC(=O)O1 (stereo not shown) [gamma-Methyl tridecalactone, gamma methyl tridecalactone] | 80% | 1.75 h |  |  | 
7 | CCCCCCCCCCC1CCC(=O)O1 (stereo not shown) [gamma-Tetradecalactone, gamma-tetradecalactone] | 82% |  | 80% | 82.4% and 75% | % Repellency at 24 hours ([1]; 5% in isopropyl alcohol): 91%; Mortality @ 24 hours (Cockroaches; neat): 46%; Mean % repelled (Brown Dog Ticks): 92%
